Measured values reported in patent publication US20230331718A1, “COMPOSITIONS FOR MODULATING SPLICING” (Skyhawk Therapeutics, Inc., priority 2020, published 2023).

Assays:
[1] = tested on: SMN2 Splicing D7 (SMN Δ7 transcript); experiment: SMN Quantitative Splicing Assay (qPCR); format: cell-based, human; settings: 24 h, SMA patient fibroblasts (GM03813), 2.5 µM to 0.6 nM
Method: Spinal muscular atrophy (SMA) patient fibroblasts (GM03813, Coriell) were plated in 96-well plates at 50,000 cells/well. […] Treated cells were lysed and cDNA synthesized using the Fast Advanced Cells-to-Ct kit (Thermofisher A35378) according to the manufacturer’s instructions. 2 µL of each cDNA were used in qPCR reactions. […] Reactions were run in a Quant Studio 6 qPCR instrument with default settings.

[2] = tested on: SMN2 Protein; experiment: SMN Protein Assay (MSD); format: cell-based, human; settings: SMA patient fibroblasts, 48 hours, 0.6 nM to 2.5 µM
Method: Spinal muscular atrophy (SMA) patient fibroblasts were plated in 96-well plates at 7,000 cells/well. Compounds were added in concentrations ranging from 0.6 nM to 2.5 µM, incubated for 48 hours and the cells were lysed with 100 µL of lysis buffer. 20 µL of lysate was used for SMN protein measurement by Mesoscale Discovery (MSD) assay developed by PharmOptima (Michigan). A standard curve prepared with SMN protein ranging from 1 µg/ml to 19.5pg/ml was used in each MSD plate to calculate the absolute SMN protein amount in each sample.

| Structure (SMILES) | IC50 ([1]; Homo sapiens, Fibroblast) | EC50 [2] | IC50 [1] |
| --- | --- | --- | --- |
| CN(c1cnc(-c2cc3ccn(C)c(=O)c3cc2O)nn1)[C@H]1C[C@]2(C)COC[C@](C)(C1)N2 [Compound 152] | 0.01 to 15 nM | 0.01 to 15 nM |  |
| Cc1cc(=O)c2cc(-c3ncc(N(C)[C@H]4C[C@@H]5CC[C@@H](N5)[C@H]4F)nn3)c(O)cc2o1 (single isomer, unassigned) [Compound 1B] | 16 to 50 nM | 0.01 to 15 nM |  |
| CN(c1cnc(-c2cc3c(=O)n(C)cnc3cc2O)nn1)C1CC2CCC(N2)[C@@H]1F (stereo partly shown) [Compound 140] | 101 to 500 nM | 16 to 50 nM |  |
| CN(c1cnc(-c2cc3c(=O)n(C)ccc3cc2O)nn1)[C@H]1CC2CC[C@@H](N2)[C@H]1F [Compound 82] | 0.01 to 15 nM | 0.01 to 15 nM |  |
| CN(c1cnc(-c2cc3c(F)cn(C)c(=O)c3cc2O)nn1)[C@H]1C[C@@H]2CC[C@@](C)(N2)[C@H]1F [Compound 187] | 0.01 to 15 nM | 0.01 to 15 nM |  |
| Cc1ncc2cc(O)c(-c3ncc(N(C)[C@@H]4CC5CCC(N5)[C@@H]4F)nn3)cc2n1 (single isomer, unassigned) [Compound 39] | 101 to 500 nM | 51 to 100 nM |  |
| CN(c1cnc(-c2cc3c(F)cn(C)c(=O)c3cc2O)nn1)[C@@H]1CC2CC[C@](C)(N2)[C@@H]1F [Compound 188] | 0.01 to 15 nM | 0.01 to 15 nM |  |
| CN(c1cnc(-c2cc3cnn(C)c(=O)c3cc2O)nn1)C1CC2COCC(C1)N2 (stereo not shown) [Compound 149] | 0.01 to 15 nM | 51 to 100 nM |  |
| CCc1coc2cc(-c3ncc(N(C)[C@@H]4C[C@H]5CC[C@H](N5)[C@@H]4F)nn3)c(O)cc2c1=O [Compound 93] | 16 to 50 nM | 16 to 50 nM |  |
| CN(c1cnc(-c2cc3nccnc3cc2O)nn1)[C@@H]1CC2CC[C@H](N2)[C@@H]1F [Compound 57] |  | 16 to 50 nM | 101 to 500 nM |
| CN(c1cnc(-c2cc3occc(=O)c3cc2O)nn1)[C@H]1C[C@@H]2CCC(N2)[C@H]1F [Compound 18] | 0.01 to 15 nM | 0.01 to 15 nM |  |
| CN(c1cnc(-c2cc3ccn(C)c(=O)c3cc2O)nn1)[C@@H]1CC2CC[C@](C)(N2)[C@@H]1F [Compound 172] | 0.01 to 15 nM | 0.01 to 15 nM |  |
| CN(c1cnc(-c2cc3ncn(C(F)F)c(=O)c3cc2O)nn1)[C@H]1CC2CC[C@@H](N2)[C@H]1F [Compound 195] | 0.01 to 15 nM | 0.01 to 15 nM |  |
| Cc1cc2cc(-c3ncc(N(C)[C@@H]4CC5CCC(N5)[C@@H]4F)nn3)c(O)cc2cn1 (stereo partly shown) [Compound 43] | 51 to 100 nM | 16 to 50 nM |  |
| [2H]C([2H])([2H])N(c1cnc(-c2cc3c(F)cn(CC)c(=O)c3cc2O)nn1)[C@H]1C[C@@H]2CC[C@@H](N2)[C@H]1F [Compound 201] | 0.01 to 15 nM | 0.01 to 15 nM |  |
| CN(c1cnc(-c2cc3ccn(C)c(=O)c3cc2O)nn1)[C@H]1C[C@]2(C)CCC(N2)[C@H]1F [Compound 173] | 16 to 50 nM | 16 to 50 nM |  |
| CCn1cnc2cc(-c3ncc(N(C)C4CC5CCC(N5)[C@@H]4F)nn3)c(O)cc2c1=O (stereo partly shown) [Compound 31] | 51 to 100 nM | 51 to 100 nM |  |
| Cc1cc2cc(-c3ncc(N(C)[C@H]4CC5CC[C@@H](N5)[C@H]4F)nn3)c(O)cc2c(=O)n1C [Compound 206] | 0.01 to 15 nM | 0.01 to 15 nM |  |
| [2H]C([2H])([2H])n1cnc2cc(-c3ncc(N(C)[C@H]4C[C@@H]5CCC(N5)[C@H]4F)nn3)c(O)cc2c1=O [Compound 177] | 0.01 to 15 nM | 0.01 to 15 nM |  |
| CN(c1cnc(-c2cc3ccncc3cc2O)nn1)C1CC2CCC(N2)[C@H]1F (stereo partly shown) [Compound 22] | 16 to 50 nM | 0.01 to 15 nM |  |
| Cc1cc(=O)c2cc(-c3ncc(N(C)[C@H]4C[C@@H]5CCC[C@@H](N5)[C@H]4F)nn3)c(O)cc2o1 [Compound 112] | 16 to 50 nM | 16 to 50 nM |  |
| CN(c1cnc(-c2cc3ncn(C)c(=O)c3cc2O)nn1)C1CC2CC(F)(F)C(C1)N2 (stereo not shown) [Compound 143] |  | 51 to 100 nM | 101 to 500 nM |
| [2H]C([2H])([2H])N(c1cnc(-c2cc3ccn(C([2H])([2H])[2H])c(=O)c3cc2O)nn1)[C@H]1C[C@@H]2CCC(N2)[C@H]1F [Compound 167] | 0.01 to 15 nM | 0.01 to 15 nM |  |
| Cc1nc2cc(O)c(-c3ncc(N(C)[C@H]4CC5CC[C@@H](N5)[C@H]4F)nn3)cc2nc1C [Compound 85] | 0.01 to 15 nM | 16 to 50 nM |  |
| Cc1cc(=O)c2cc(-c3ncc(N(C)[C@@H]4CC5CCCC(N5)[C@@H]4F)nn3)c(O)cc2o1 (stereo partly shown) [Compound 111] | 101 to 500 nM | 51 to 100 nM |  |
| CN(c1cnc(-c2cc3cnccc3cc2O)nn1)[C@H]1C[C@@H]2CC[C@@H](N2)[C@H]1F (single isomer, unassigned) [Compound 5B] | 16 to 50 nM | 0.01 to 15 nM |  |
| CN(c1cnc(-c2cc3ncn(C)c(=O)c3cc2O)nn1)C1C[C@@]2(C)CCC(N2)[C@@H]1F (stereo partly shown) [Compound 35] | 0.01 to 15 nM | 0.01 to 15 nM |  |

| Structure (SMILES) | IC50 ([1]; Homo sapiens, Fibroblast) | EC50 [2] | IC50 [1] |
| --- | --- | --- | --- |
| Cc1cnc2cc(-c3ncc(N(C)[C@@H]4CC5CCCC(N5)[C@@H]4F)nn3)c(O)cc2n1 (stereo partly shown) [Compound 105] | 101 to 500 nM | 16 to 50 nM |  |
| Cc1coc2cc(-c3ncc(N(C)C4CC5CCC(N5)[C@@H]4F)nn3)c(O)cc2c1=O (stereo partly shown) [Compound 27] | 0.01 to 15 nM | 0.01 to 15 nM |  |
| [2H]C([2H])([2H])C([2H])([2H])n1cc(F)c2cc(-c3ncc(N(C)[C@H]4CC5CCC(N5)[C@H]4F)nn3)c(O)cc2c1=O (stereo partly shown) [Compound 208] | 0.01 to 15 nM | 0.01 to 15 nM |  |
| CN(c1cnc(-c2cc3c(=O)n(C)ccc3cc2O)nn1)[C@@H]1CC2CC[C@H](N2)[C@@H]1F [Compound 81] | 51 to 100 nM | 16 to 50 nM |  |
| Cc1cc2cc(O)c(-c3ncc(N(C)[C@@H]4CC5CCC(N5)[C@@H]4F)nn3)cc2cn1 (stereo partly shown) [Compound 45] | 16 to 50 nM | 16 to 50 nM |  |
| CN(c1cnc(-c2cc3ncn(C)c(=O)c3cc2O)nn1)C1CC2CC[C@](C)(N2)[C@@H]1F (stereo partly shown) [Compound 135] | 0.01 to 15 nM | 0.01 to 15 nM |  |
| CN(c1cnc(-c2cc3occc(=O)c3cc2O)nn1)[C@@H]1C[C@@]2(C)CCC[C@](C)(N2)[C@@H]1F [Compound 61] | 51 to 100 nM | 0.01 to 15 nM |  |
| CN(c1cnc(-c2cc3ccn(C)c(=O)c3cc2O)nn1)[C@H]1CC2CCC(N2)[C@H]1F (single isomer, unassigned) [Compound 4B] | 0.01 to 15 nM | 0.01 to 15 nM |  |
| Cc1nc2cc(O)c(-c3ncc(N(C)[C@H]4C[C@@H]5CCC(N5)[C@H]4F)nn3)cc2nc1C [Compound 56] | 0.01 to 15 nM | 16 to 50 nM |  |
| CCn1ccc2cc(-c3ncc(N(C)C4CC5CCC(N5)[C@H]4F)nn3)c(O)cc2c1=O (stereo partly shown) [Compound 34] | 0.01 to 15 nM | 0.01 to 15 nM |  |
| Cc1cc2cc(-c3ncc(N(C)[C@H]4CC5CCC(N5)[C@H]4F)nn3)c(O)cc2cn1 (stereo partly shown) [Compound 44] | 0.01 to 15 nM | 0.01 to 15 nM |  |
| [2H]C([2H])([2H])N(c1cnc(-c2cc3ncn(C([2H])([2H])[2H])c(=O)c3cc2O)nn1)[C@@H]1CC2CC[C@H](N2)[C@@H]1F [Compound 176] | 16 to 50 nM | 0.01 to 15 nM |  |
| Cc1cc2cc(O)c(-c3ncc(N(C)[C@@H]4CC5CCC[C@H](N5)[C@@H]4F)nn3)cc2cn1 [Compound 77] | 16 to 50 nM | 16 to 50 nM |  |
| Cc1cc(=O)c2cc(O)c(-c3ncc(N(C)[C@@H]4C[C@H]5CCC(N5)[C@@H]4F)nn3)cc2o1 (single isomer, unassigned) [Compound 6A] | 16 to 50 nM | 0.01 to 15 nM |  |
| CCn1cc(F)c2cc(-c3ncc(N(C)[C@H]4CC5CC(F)(F)C(C4)N5)nn3)c(O)cc2c1=O (stereo partly shown) [Compound 212] | 51 to 100 nM | 501 to 10000 nM |  |
| CN(c1cnc(-c2cc3ncn(C(F)F)c(=O)c3cc2O)nn1)[C@@H]1C[C@H]2CCC(N2)[C@@H]1F [Compound 196] | 16 to 50 nM | 51 to 100 nM |  |
| CN(c1cnc(-c2cc3ncn(C)c(=O)c3cc2O)nn1)[C@H]1C[C@]2(C)COC[C@](C)(C1)N2 [Compound 150] | 0.01 to 15 nM | 0.01 to 15 nM |  |
| CN(c1cnc(-c2cc3occc(=O)c3cc2O)nn1)C1CC2CCC(N2)C1F (stereo not shown) [Compound 17] | 16 to 50 nM | 16 to 50 nM |  |
| CN(c1cnc(-c2cc3occ(C(F)(F)F)c(=O)c3cc2O)nn1)[C@H]1C[C@@H]2CC[C@@H](N2)[C@H]1F [Compound 90] | 16 to 50 nM | 16 to 50 nM |  |
| CN(c1cnc(-c2cc3c(F)cn(C)c(=O)c3cc2O)nn1)C1CC2CCCC(N2)[C@@H]1F (stereo partly shown) [Compound 138] | 16 to 50 nM | 0.01 to 15 nM |  |
| CN(c1cnc(-c2cc3ncn(C)c(=O)c3cc2O)nn1)[C@@H]1CC2CCC(N2)[C@@H]1F (single isomer, unassigned) [Compound 3A] | 16 to 50 nM | 16 to 50 nM |  |
| CN(c1cnc(-c2cc3ncn(C)c(=O)c3cc2O)nn1)C1CC2COCC(C1)N2 (stereo not shown) [Compound 148] | 0.01 to 15 nM | 0.01 to 15 nM |  |
| CN(c1cnc(-c2cc3cncnc3cc2O)nn1)C1CC2CCC(N2)[C@H]1F (stereo partly shown) [Compound 26] | 51 to 100 nM | 16 to 50 nM |  |
| CN(c1cnc(-c2cc3occc(=O)c3cc2O)nn1)[C@@H]1C[C@@]2(C)CC[C@](C)(N2)[C@@H]1F [Compound 59] | 16 to 50 nM | 16 to 50 nM |  |
| CCn1ccc2cc(O)c(-c3ncc(N(C)[C@@H]4C[C@H]5CCC(N5)[C@@H]4F)nn3)cc2c1=O [Compound 83] | 101 to 500 nM | 16 to 50 nM |  |
| [2H]C([2H])([2H])n1ccc2cc(-c3ncc(N(C)[C@@H]4CC5CCC(N5)[C@@H]4F)nn3)c(O)cc2c1=O (stereo partly shown) [Compound 158] | 0.01 to 15 nM | 0.01 to 15 nM |  |
